Columns and labels:
[1] = molecular target: Voltage-gated inwardly rectifying potassium channel KCNH2 (Homo sapiens, UniProt Q12809); test: Displacement of [3H]-dofetilide from human ERG expressed in HEK293 cells measured after 90 mins by scintillation proximity assay; assay type: cell-based
Serine protease 1 = Serine protease 1 (Homo sapiens, UniProt P07477); test: Inhibition of human PRSS1 assessed as enzymatic cleavage of Benzoyl-GlyPro-Arg'Rh110-gammaGlu-OH by fluorescence analysis
Prothrombin = Prothrombin (Homo sapiens, UniProt P00734); test: Inhibition of human thrombin
[2] = Dissociation constant, pKa of the compound; assay type: physicochemical
Neutrophil elastase = molecular target: T1, Neutrophil elastase (Homo sapiens, UniProt P08246); test: Inhibition of human neutrophil elastase
T1 sequence (P08246 whole entry): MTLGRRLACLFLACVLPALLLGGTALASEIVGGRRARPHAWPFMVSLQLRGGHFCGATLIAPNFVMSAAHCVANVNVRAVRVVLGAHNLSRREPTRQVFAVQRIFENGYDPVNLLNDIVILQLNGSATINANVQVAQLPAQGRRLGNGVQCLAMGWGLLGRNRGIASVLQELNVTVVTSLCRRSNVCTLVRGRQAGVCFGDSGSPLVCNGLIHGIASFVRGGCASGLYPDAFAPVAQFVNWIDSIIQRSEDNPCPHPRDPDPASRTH

Coagulation factor X = Coagulation factor X (Homo sapiens, UniProt P00742); test: Inhibition of human f10a
Coagulation factor X, sequence (P00742 41-179 limits assumed): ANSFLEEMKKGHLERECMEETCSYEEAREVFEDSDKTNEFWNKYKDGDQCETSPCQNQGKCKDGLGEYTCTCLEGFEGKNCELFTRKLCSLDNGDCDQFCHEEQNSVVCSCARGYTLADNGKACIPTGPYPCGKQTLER
Coagulation factor X, sequence (P00742 235-488 limits assumed): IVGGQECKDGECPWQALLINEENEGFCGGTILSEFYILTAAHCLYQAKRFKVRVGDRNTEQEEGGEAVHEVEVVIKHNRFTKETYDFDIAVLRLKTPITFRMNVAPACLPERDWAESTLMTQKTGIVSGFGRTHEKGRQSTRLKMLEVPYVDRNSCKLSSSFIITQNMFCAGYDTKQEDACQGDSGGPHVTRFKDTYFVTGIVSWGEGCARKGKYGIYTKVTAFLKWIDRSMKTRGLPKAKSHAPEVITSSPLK

[3] = Solubility of the compound at pH 6.8; assay type: physicochemical; settings: buffer
[4] = Clearance in Sprague-Dawley rat at 1 mg/kg, iv; assay type: ADME, organism-based; settings: in vivo
Chymotrypsin = Chymotrypsin (Homo sapiens, UniProt Q99895+P17538+P40313+Q6GPI1); test: Inhibition of human chymotrypsin; assay type: protein assay
[5] = AUC (0 to 24 hrs) in Sprague-Dawley rat at 1 mg/kg, iv; assay type: ADME, organism-based; design: time < 24 hr, dose 1 mg/kg, route intravenous; settings: in vivo
[6] = Lipophilicity, log P of the compound; assay type: physicochemical; settings: octanol/water

Voltage-gated inwardly rectifying potassium channel KCNH2, sequence (Q12809 whole entry): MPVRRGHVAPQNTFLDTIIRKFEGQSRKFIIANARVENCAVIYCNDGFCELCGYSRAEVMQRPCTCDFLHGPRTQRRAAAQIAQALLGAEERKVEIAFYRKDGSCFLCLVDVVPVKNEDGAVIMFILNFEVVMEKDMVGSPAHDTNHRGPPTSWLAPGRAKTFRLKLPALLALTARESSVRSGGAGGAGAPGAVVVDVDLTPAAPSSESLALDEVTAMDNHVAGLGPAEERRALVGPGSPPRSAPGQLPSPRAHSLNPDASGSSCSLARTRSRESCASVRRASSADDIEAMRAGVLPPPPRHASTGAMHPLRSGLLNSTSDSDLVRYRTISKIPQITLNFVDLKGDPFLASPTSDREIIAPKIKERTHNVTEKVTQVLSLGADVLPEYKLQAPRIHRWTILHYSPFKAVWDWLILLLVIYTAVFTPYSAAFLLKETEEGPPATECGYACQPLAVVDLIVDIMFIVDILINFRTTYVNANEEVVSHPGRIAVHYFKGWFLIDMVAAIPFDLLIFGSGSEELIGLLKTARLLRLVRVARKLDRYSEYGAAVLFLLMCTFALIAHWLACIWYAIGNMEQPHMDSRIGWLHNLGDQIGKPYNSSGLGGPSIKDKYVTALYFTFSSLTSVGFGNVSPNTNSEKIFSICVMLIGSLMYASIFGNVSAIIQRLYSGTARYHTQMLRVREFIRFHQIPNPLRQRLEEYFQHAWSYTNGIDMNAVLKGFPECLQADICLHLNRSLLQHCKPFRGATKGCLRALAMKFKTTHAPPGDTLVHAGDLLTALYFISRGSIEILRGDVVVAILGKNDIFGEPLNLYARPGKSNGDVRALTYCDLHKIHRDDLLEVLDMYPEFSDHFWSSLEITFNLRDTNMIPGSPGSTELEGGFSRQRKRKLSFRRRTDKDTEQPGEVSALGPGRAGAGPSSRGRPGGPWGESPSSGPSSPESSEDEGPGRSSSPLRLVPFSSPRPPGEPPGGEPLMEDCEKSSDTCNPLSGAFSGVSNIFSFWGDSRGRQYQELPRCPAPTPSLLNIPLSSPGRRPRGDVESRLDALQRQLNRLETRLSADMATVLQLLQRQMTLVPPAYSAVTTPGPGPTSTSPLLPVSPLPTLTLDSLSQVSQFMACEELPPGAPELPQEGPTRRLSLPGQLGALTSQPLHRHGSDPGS
Serine protease 1, sequence (P07477 whole entry): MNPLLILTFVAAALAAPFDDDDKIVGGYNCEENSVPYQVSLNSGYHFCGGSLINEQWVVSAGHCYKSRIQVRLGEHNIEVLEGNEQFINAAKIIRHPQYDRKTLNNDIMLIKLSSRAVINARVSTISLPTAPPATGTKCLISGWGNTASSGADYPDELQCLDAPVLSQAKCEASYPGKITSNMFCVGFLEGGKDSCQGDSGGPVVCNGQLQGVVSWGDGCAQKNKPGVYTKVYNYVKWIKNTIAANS

Row | SMILES | IC50 (Serine protease 1) | IC50 [1] | further results
1 | COc1cc(C(=O)N2C[C@@H](n3cc(C4CC4)nn3)C[C@H]2C(=O)N2CC[C@@H](c3ccccc3)C2)ccc1CN | 0.33 µM | – | –
2 | NCc1ccc(C(=O)N2C[C@@H](n3cc(C4CC4)nn3)C[C@H]2C(=O)NCC(c2ccccc2)c2ccccc2)cc1F | 31 µM | – | pKa [2]: 6.2
3 | COc1cc(C(=O)N2C[C@@H](n3cc(C4CC4)nn3)C[C@H]2C(=O)N[C@H]2C[C@@H]2c2ccccc2)ccc1CN | 0.96 µM | – | –
4 | CNC(=O)[C@@H]1C[C@H](n2cc(C3CC3)nn2)CN1C(=O)c1ccc(CN)c(OC)c1 | 2.1 µM | > 30 µM | –
5 | COc1cc(C(=O)N2C[C@@H](n3cc(C4CC4)nn3)C[C@H]2C(=O)N2CC[C@H](c3ccccc3)C2)ccc1CN | 0.22 µM | 14 µM | –
6 | COc1cc(C(=O)N2C[C@@H](n3cc(C4CC4)nn3)C[C@H]2C(=O)NCCc2ccccc2)ccc1CN | 0.16 µM | – | –
7 | Cc1cc(C(=O)N2C[C@@H](n3cc(C4CC4)nn3)C[C@H]2C(=O)NCC(c2ccccc2)c2ccccc2)ccc1CN | 0.11 µM | – | pKa [2]: 8.7
8 | CNC(=O)[C@@H]1C[C@H](N2CCc3ccccc3C2)CN1C(=O)c1ccc(CN)c(OC)c1 | 0.49 µM | > 30 µM | –

Second part, led by results:

Row | IC50 (Serine protease 1) | SMILES | IC50 [1] | further results
9 | 0.002 µM | CNC(=O)[C@@H]1C[C@H](N2CCc3c(cccc3OCCC3CC3)C2)CN1C(=O)c1ccc(CN)c(OC)c1 | 11 µM | –
10 | 0.003 µM | CNC(=O)[C@@H]1C[C@H](N2CCc3c(cccc3OCCc3ccccc3)C2)CN1C(=O)c1ccc(CN)c(OC)c1 | 4 µM | –
11 | 0.006 µM | CNC(=O)[C@@H]1C[C@H](N2CCc3c(ncnc3OCCC3CC3)C2)CN1C(=O)c1ccc(CN)c(OC)c1 | > 30 µM | –
12 | 0.11 µM | COc1cc(C(=O)N2C[C@@H](n3cc(C4CC4)nn3)C[C@H]2C(=O)N[C@@H]2C[C@H]2c2ccccc2)ccc1CN | 22 µM | –
13 | 0.005 µM | CNC(=O)[C@@H]1C[C@H](N2CCc3c(ncnc3OCCc3ccccc3)C2)CN1C(=O)c1ccc(CN)c(OC)c1 | > 30 µM | –
14 | 0.011 to 0.014 µM | COc1cc(C(=O)N2C[C@@H](n3cc(C4CC4)nn3)C[C@H]2C(=O)NCC(c2ccccc2)c2ccccc2)ccc1CN | 2.4 µM | IC50 (Prothrombin): 27 µM; pKa [2]: 9.2; IC50 (Neutrophil elastase): 55 µM; IC50 (Coagulation factor X): 31 µM; solubility [3]: > 1000 µM; clearance [4]: 33 mL/min/kg; IC50 (Chymotrypsin): 15 µM; AUC(0-t) at 24 h [5]: 1.03 µM·h
15 | 0.008 µM | CNC(=O)[C@@H]1C[C@H](N2CCc3c(cccc3OCCOC)C2)CN1C(=O)c1ccc(CN)c(OC)c1 | > 30 µM | IC50 (Prothrombin): > 100 µM; IC50 (Neutrophil elastase): > 100 µM; IC50 (Coagulation factor X): > 100 µM; solubility [3]: > 1000 µM; clearance [4]: 9 mL/min/kg; IC50 (Chymotrypsin): > 100 µM; AUC(0-t) at 24 h [5]: 3.88 µM·h
16 | 0.11 µM | NCc1ccc(C(=O)N2C[C@@H](n3cc(C4CC4)nn3)C[C@H]2C(=O)NCC(c2ccccc2)c2ccccc2)cc1 | 0.5 µM | IC50 (Prothrombin): 94 µM; logP [6]: 3; pKa [2]: 8.5; IC50 (Neutrophil elastase): > 100 µM; IC50 (Coagulation factor X): 71 µM; solubility [3]: > 1000 µM; IC50 (Chymotrypsin): > 100 µM
17 | 0.019 µM | COc1cc(C(=O)N2C[C@@H](n3cc(C4CC4)nn3)C[C@H]2C(=O)N[C@H]2CCCC[C@@H]2c2ccccc2)ccc1CN | – | IC50 (Prothrombin): 54 µM; IC50 (Neutrophil elastase): > 100 µM; IC50 (Coagulation factor X): 72 µM; IC50 (Chymotrypsin): > 100 µM
18 | 0.1 µM | CNC(=O)[C@@H]1C[C@H](N2CCc3c(cccc3OC)C2)CN1C(=O)c1ccc(CN)c(OC)c1 | > 30 µM | –

Source: ChEMBL document CHEMBL4425182, “Trypsin inhibitors for the treatment of pancreatitis” (Bioorg Med Chem Lett, 2016)
